# Measured values reported in ChEMBL document CHEMBL5674860, “Optimized Dual-Glo Assay to identify co-culture-induced drug vulnerabilities in 3D CRC models” (2024).
# Legend:
# Type in all cases: functional, Homo sapiens
# Parameters in all cases: dose or concentration left out as unconfirmed
# [1] = test system: Colon cancer organoid; assay: Optimized Dual-Glo assay to identify co-culture induced drug vulnerabilities using donated chemical probes and chemogenomics kinase set in O20 CRC organoid and F20 CAF mono and co-culture. […] Cell viability is reported both mono and co-culture models.
# [2] = test system: Colon cancer organoid; assay: Optimized Dual-Glo assay to identify co-culture induced drug vulnerabilities using donated chemical probes and chemogenomics kinase set in O14 CRC organoid and F14 CAF mono and co-culture. […] Cell viability is reported both mono and co-culture models.
# [3] = test system: Colon cancer organoid; assay: Optimized Dual-Glo assay to identify co-culture induced drug vulnerabilities using donated chemical probes and chemogenomics kinase set in O06 CRC organoid and F06 CAF mono and co-culture. […] Cell viability is reported both mono and co-culture models.
# [4] = Culture type Co-Culture, Transduced with Lucferase2-P2A-EGFP lentivirus
# [5] = Culture type Co-Culture, Transduced with Renilla-dsRed lentivirus
# [6] = Culture type Mono-Culture, Transduced with Lucferase2-P2A-EGFP lentivirus
# [7] = Culture type Mono-Culture, Transduced with Renilla-dsRed lentivirus
smiles,measurement,setting,value
COc1ccc(Cn2ccc3ccc(C(=O)NO)cc32)cc1,Cell Viability,[1]; [4],176.611%
same,Cell Viability,[1]; [5],111.53%
same,Cell Viability,[1]; [6],111.23%
same,Cell Viability,[1]; [7],102.771%
same,Cell Viability,[2]; [4],71.3405%
same,Cell Viability,[2]; [5],118.85%
same,Cell Viability,[2]; [6],119.497%
same,Cell Viability,[2]; [7],102.466%
same,Cell Viability,[3]; [4],111.578%
same,Cell Viability,[3]; [5],129.424%
same,Cell Viability,[3]; [6],126.919%
same,Cell Viability,[3]; [7],118.855%
CCCOc1ccn2c(C(C)=O)cc(-c3cccc(OC)c3)c2c1,Cell Viability,[1]; [4],76.4747%
same,Cell Viability,[1]; [5],110.044%
same,Cell Viability,[1]; [6],113.084%
same,Cell Viability,[1]; [7],103.998%
same,Cell Viability,[2]; [4],84.3946%
same,Cell Viability,[2]; [5],120.115%
same,Cell Viability,[2]; [6],124.987%
same,Cell Viability,[2]; [7],98.1469%
same,Cell Viability,[3]; [4],110.241%
same,Cell Viability,[3]; [5],146.669%
same,Cell Viability,[3]; [6],131.845%
same,Cell Viability,[3]; [7],119.651%
CN1C[C@H](Nc2cnn(C)c(=O)c2Br)C[C@H](c2ccccc2)C1,Cell Viability,[1]; [4],159.897%
same,Cell Viability,[1]; [5],106.068%
same,Cell Viability,[1]; [6],104.311%
same,Cell Viability,[1]; [7],120.493%
same,Cell Viability,[2]; [4],72.8555%
same,Cell Viability,[2]; [5],143.992%
same,Cell Viability,[2]; [6],98.7271%
same,Cell Viability,[2]; [7],111.977%
same,Cell Viability,[3]; [4],52.3497%
same,Cell Viability,[3]; [5],181.327%
same,Cell Viability,[3]; [6],101.698%
same,Cell Viability,[3]; [7],109.538%
CO[C@H]1CNC[C@@H](OCC2CCC(F)(F)CC2)[C@@H]1Nc1ncc(-c2cncc(C)c2)c2cc(C)c(=O)[nH]c12,Cell Viability,[1]; [4],171.391%
same,Cell Viability,[1]; [5],122.949%
same,Cell Viability,[1]; [6],125.457%
same,Cell Viability,[1]; [7],102.001%
same,Cell Viability,[2]; [4],95.7966%
same,Cell Viability,[2]; [5],88.7201%
same,Cell Viability,[2]; [6],127.619%
same,Cell Viability,[2]; [7],100.555%
same,Cell Viability,[3]; [4],95.0954%
same,Cell Viability,[3]; [5],138.476%
same,Cell Viability,[3]; [6],98.6849%
same,Cell Viability,[3]; [7],128.396%
Cl.O=C(O)c1cc(-c2ccc(C3CCNCC3)cc2)c2ccc(-c3ccc(C(F)(F)F)cc3)cc2c1,Cell Viability,[1]; [4],105.826%
same,Cell Viability,[1]; [5],101.384%
same,Cell Viability,[1]; [6],71.4178%
same,Cell Viability,[1]; [7],87.2658%
same,Cell Viability,[2]; [4],74.9682%
same,Cell Viability,[2]; [5],122.124%
same,Cell Viability,[2]; [6],85.098%
same,Cell Viability,[2]; [7],99.5367%
same,Cell Viability,[3]; [4],107.895%
same,Cell Viability,[3]; [5],117.47%
same,Cell Viability,[3]; [6],95.8495%
same,Cell Viability,[3]; [7],93.2112%
Cc1c(Nc2ccc(S(=O)(=O)N3CCN(C)CC3)cc2F)nc2ccc(Nc3cnn(C4CC4)c3)cn2c1=O,Cell Viability,[1]; [4],117.664%
same,Cell Viability,[1]; [5],135.679%
same,Cell Viability,[1]; [6],121.681%
same,Cell Viability,[1]; [7],97.2871%
same,Cell Viability,[2]; [4],111.5%
same,Cell Viability,[2]; [5],108.059%
same,Cell Viability,[2]; [6],92.684%
same,Cell Viability,[2]; [7],101.792%
same,Cell Viability,[3]; [4],81.8172%
same,Cell Viability,[3]; [5],120.859%
same,Cell Viability,[3]; [6],129.193%
same,Cell Viability,[3]; [7],116.74%
CCOC(=O)CCNc1cc(N2CCc3ccccc3CC2)nc(-c2cccnc2)n1,Cell Viability,[1]; [4],102.18%
same,Cell Viability,[1]; [5],131.422%
same,Cell Viability,[1]; [6],61.9891%
same,Cell Viability,[1]; [7],99.1525%
same,Cell Viability,[2]; [4],62.9469%
same,Cell Viability,[2]; [5],109.109%
same,Cell Viability,[2]; [6],99.8423%
same,Cell Viability,[2]; [7],94.8955%
same,Cell Viability,[3]; [4],130.773%
same,Cell Viability,[3]; [5],124.082%
same,Cell Viability,[3]; [6],90.274%
same,Cell Viability,[3]; [7],111.34%
C[C@H]1CCCN1Cc1nc2cc(NC(=O)c3ccc4cnccc4c3)ccc2[nH]1,Cell Viability,[1]; [4],98.572%
same,Cell Viability,[1]; [5],149.477%
same,Cell Viability,[1]; [6],83.1729%
same,Cell Viability,[1]; [7],94.0651%
same,Cell Viability,[2]; [4],60.7566%
same,Cell Viability,[2]; [5],146.013%
same,Cell Viability,[2]; [6],100.332%
same,Cell Viability,[2]; [7],105.964%
same,Cell Viability,[3]; [4],122.515%
same,Cell Viability,[3]; [5],131.721%
same,Cell Viability,[3]; [6],188.522%
same,Cell Viability,[3]; [7],107.295%
Cc1cc(C)cc([C@@H]2c3cc(C)ccc3NC(=O)CN2C(=O)c2ccc(Br)s2)c1,Cell Viability,[1]; [4],135.921%
same,Cell Viability,[1]; [5],541.943%
same,Cell Viability,[1]; [6],109.076%
same,Cell Viability,[1]; [7],515.86%
same,Cell Viability,[2]; [4],88.8372%
same,Cell Viability,[2]; [5],581.73%
same,Cell Viability,[2]; [6],126.733%
same,Cell Viability,[2]; [7],467.801%
same,Cell Viability,[3]; [4],107.168%
same,Cell Viability,[3]; [5],464.523%
same,Cell Viability,[3]; [6],138.593%
same,Cell Viability,[3]; [7],545.831%
Cc1cc(C)cc([C@H]2c3cc(C)ccc3NC(=O)CN2C(=O)c2ccc(Br)s2)c1,Cell Viability,[1]; [4],134.503%
same,Cell Viability,[1]; [5],98.7461%
same,Cell Viability,[1]; [6],124.059%
same,Cell Viability,[1]; [7],79.4319%
same,Cell Viability,[2]; [4],84.3524%
same,Cell Viability,[2]; [5],110.086%
same,Cell Viability,[2]; [6],124.101%
same,Cell Viability,[2]; [7],91.0337%
same,Cell Viability,[3]; [4],94.0417%
same,Cell Viability,[3]; [5],115.465%
same,Cell Viability,[3]; [6],159.24%
same,Cell Viability,[3]; [7],104.104%
COCCN1CCC(c2cc(CN(C)C(=O)c3cccc(Oc4ccccc4)c3)ccn2)CC1,Cell Viability,[1]; [4],94.1045%
same,Cell Viability,[1]; [5],115.605%
same,Cell Viability,[1]; [6],130.999%
same,Cell Viability,[1]; [7],103.56%
same,Cell Viability,[2]; [4],94.0691%
same,Cell Viability,[2]; [5],112.751%
same,Cell Viability,[2]; [6],102.019%
same,Cell Viability,[2]; [7],112.74%
same,Cell Viability,[3]; [4],91.2389%
same,Cell Viability,[3]; [5],131.922%
same,Cell Viability,[3]; [6],95.8918%
same,Cell Viability,[3]; [7],124.805%
CC(=O)c1cc(-c2ccccc2OCC2CC2)c2ncccn12,Cell Viability,[1]; [4],90.8424%
same,Cell Viability,[1]; [5],121.201%
same,Cell Viability,[1]; [6],99.1369%
same,Cell Viability,[1]; [7],90.8457%
same,Cell Viability,[2]; [4],80.3991%
same,Cell Viability,[2]; [5],93.1948%
same,Cell Viability,[2]; [6],108.194%
same,Cell Viability,[2]; [7],100.736%
same,Cell Viability,[3]; [4],107.249%
same,Cell Viability,[3]; [5],181.775%
same,Cell Viability,[3]; [6],93.2808%
same,Cell Viability,[3]; [7],95.3402%
Cc1cc(CN)cc(C)c1-c1ncn(C)c1-c1cncn1C,Cell Viability,[1]; [4],127.582%
same,Cell Viability,[1]; [5],117.48%
same,Cell Viability,[1]; [6],113.288%
same,Cell Viability,[1]; [7],98.6435%
same,Cell Viability,[2]; [4],82.5441%
same,Cell Viability,[2]; [5],115.965%
same,Cell Viability,[2]; [6],119.104%
same,Cell Viability,[2]; [7],86.3829%
same,Cell Viability,[3]; [4],121.461%
same,Cell Viability,[3]; [5],141.638%
same,Cell Viability,[3]; [6],159.088%
same,Cell Viability,[3]; [7],144.43%
CC(C)Oc1ccc(-c2c[nH]cc2CN(C)CCO)cc1,Cell Viability,[1]; [4],114.035%
same,Cell Viability,[1]; [5],121.653%
same,Cell Viability,[1]; [6],114.538%
same,Cell Viability,[1]; [7],100.305%
same,Cell Viability,[2]; [4],119.367%
same,Cell Viability,[2]; [5],107.888%
same,Cell Viability,[2]; [6],90.5544%
same,Cell Viability,[2]; [7],99.1586%
same,Cell Viability,[3]; [4],112.392%
same,Cell Viability,[3]; [5],114.959%
same,Cell Viability,[3]; [6],84.6605%
same,Cell Viability,[3]; [7],116.102%
